According to patent publication US20230365530A1, “QUINAZOLINE-2,4-DIAMINE DERIVATIVE AND PHARMACEUTICAL COMPOSITION FOR PREVENTING OR TREATING CANCER COMPRISING SAME AS ACTIVE INGREDIENT” (THE ASEAN FOUNDATION, priority 2020, published 2023):

The compounds below were run against EHMT2 (Euchromatic histone-lysine N-methyltransferase 2) (Homo sapiens (Human), UniProt Q96KQ7) (assay: EHMT2 enzyme inhibition, LANCE TR-FRET). Details: histone H3 peptide, 1 hour at room temperature.
Format: biochemical
Description: In order to analyze the enzyme inhibitory efficacy of the compounds of Examples 1 to 89, EHMT2 (Euchromatic histone-lysine N-methyltransferase 2) enzyme activity was measured using the LANCE TR-FRET™ analysis method of Perkin Elmer. When the EHMT2 enzyme is activated, the 9th lysine residue of the biotinylated-histone peptide is methylated and the EU-conjugated antibody is combined to the methylated histone peptide. Then, when the complex is irradiated with light of excitation wavelength, the complex emits light having a wavelength of 665 nm through FRET phenomenon. Accordingly, fluorescence was measured, and IC50 values were calculated through a software to evaluate the EHMT2 enzyme activity inhibitory effect of the compounds of Examples 1 to 89.
Specific experimental methods are as follows. First, the compounds of Examples 1 to 89 of 1 nM to 100 μM (4× conc.) were put into a 384 well plate (25 μL/well), and 2 μM EEMT2/G9a enzyme (4× conc.) was put into the 384 well plate (25 μL/well). The plate was then centrifuged at 1,500 rpm for 5 seconds after sealing the plate with plate sealing foil. After incubating the EHMT2/G9a enzyme, SAM, and the compounds of Examples above at room temperature for 10 minutes, 2 μM histone H3 peptide (4× conc.) was added to the 384-well plate (25 μL/well). After sealing the plate with plate sealing foil and centrifuging at 1,500 rpm for 5 seconds, an enzymatic reaction was performed at room temperature for 1 hour. Upon completion of the enzyme reaction, 5 μL each of 200 nM Ulight™-Streptavidin (4× conc.) and 8 nM Eu-antibody (4× conc.) was added to each well of the plate. The plate was sealed with plate sealing foil, centrifuged at 1,500 rpm for 5 seconds and reacted at room temperature for 1 hour. The signal values were measured with Envision (Ex 320 nm, Em 665 nm), and all background values obtained by reacting without enzyme were deleted from the measured raw data values. Then, the EHMT2 enzyme activity inhibitory effect of the compounds of Examples 1 to 89 was converted into % values, and compared with the EHMT2 activity when treated with 4% DMSO vehicle (=0 nM compound) as 100%.

Chain of EHMT2 (Euchromatic histone-lysine N-methyltransferase 2) (Q96KQ7 whole entry): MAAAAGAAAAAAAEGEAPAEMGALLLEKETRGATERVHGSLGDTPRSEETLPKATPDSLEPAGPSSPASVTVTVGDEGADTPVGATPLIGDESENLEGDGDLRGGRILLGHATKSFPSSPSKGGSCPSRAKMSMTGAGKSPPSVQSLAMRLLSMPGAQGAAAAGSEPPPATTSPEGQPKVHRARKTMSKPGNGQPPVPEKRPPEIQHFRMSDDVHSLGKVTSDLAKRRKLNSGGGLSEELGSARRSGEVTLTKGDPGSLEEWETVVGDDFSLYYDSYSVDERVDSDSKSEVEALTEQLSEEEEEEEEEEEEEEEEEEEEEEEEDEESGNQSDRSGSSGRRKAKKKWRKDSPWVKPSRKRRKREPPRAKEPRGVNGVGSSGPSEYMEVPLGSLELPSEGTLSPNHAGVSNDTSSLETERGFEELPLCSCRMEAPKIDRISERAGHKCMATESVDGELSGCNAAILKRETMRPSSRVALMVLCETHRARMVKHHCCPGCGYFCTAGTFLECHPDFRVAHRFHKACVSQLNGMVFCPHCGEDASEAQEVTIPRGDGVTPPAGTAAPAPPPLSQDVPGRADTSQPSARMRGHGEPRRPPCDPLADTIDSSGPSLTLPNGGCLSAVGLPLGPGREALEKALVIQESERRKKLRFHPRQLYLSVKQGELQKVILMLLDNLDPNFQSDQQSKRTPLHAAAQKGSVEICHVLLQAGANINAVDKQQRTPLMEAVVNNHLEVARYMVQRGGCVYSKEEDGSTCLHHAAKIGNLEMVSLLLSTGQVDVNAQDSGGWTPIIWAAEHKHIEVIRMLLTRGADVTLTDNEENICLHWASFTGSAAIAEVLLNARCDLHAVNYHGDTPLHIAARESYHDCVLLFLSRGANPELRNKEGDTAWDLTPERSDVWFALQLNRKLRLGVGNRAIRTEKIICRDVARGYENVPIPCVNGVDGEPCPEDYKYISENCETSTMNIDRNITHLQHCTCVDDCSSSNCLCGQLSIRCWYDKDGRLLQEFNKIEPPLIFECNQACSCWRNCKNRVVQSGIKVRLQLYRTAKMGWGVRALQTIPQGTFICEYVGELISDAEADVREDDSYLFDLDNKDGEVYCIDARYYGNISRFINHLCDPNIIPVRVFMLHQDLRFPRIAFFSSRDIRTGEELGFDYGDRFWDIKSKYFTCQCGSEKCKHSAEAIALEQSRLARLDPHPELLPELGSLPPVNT

First: COc1cc2c(NCCN(C)C)nc(N3CC[C@@H](F)C3)nc2cc1C#CCCN1CCCC1 [Example 80, (R)-N1-(2-(3-fluoropyrrolidine-1-yl)-6-methoxy-7-(4-(pyrrolidine-1-yl)-1-butyne-1-yl)quinazoline-4-yl)-N2,N2-dimethylethane-1,2-diamine]
Second: COc1cc2c(NCCN(C)C)nc(N3CCCN(C)CC3)nc2cc1C#CCCN1CCCC1 [Example 62, N1-(6-methoxy-2-(4-methyl-1,4-diazepane-1-yl)-7-(4-(pyrrolidine-1-yl)-1-butyne-1-yl)quinazoline-4-yl)-N2,N2-dimethylethane-1,2-diamine]
The IC50 of the first is higher: 100 to 1000 nM for the first, under 100 nM for the second.

`COc1cc2c(NC3CCN(C(C)C)CC3)nc(N(C)C)nc2cc1C#CCCN1CCCCC1` [Example 44, N-(1-isopropylpiperidine-4-yl)-6-methoxy-N2,N2-dimethyl-7-(4-(piperidine-1-yl)-1-butyne-1-yl)quinazoline-2,4-diamine] and `COc1cc2c(NC3CCN(C(C)C)CC3)nc(N3CC(F)C3)nc2cc1C#CCCN1CCCC1` [Example 59, 2-(3-fluoroazetidine-1-yl)-N-(1-isopropylpiperidine-4-yl)-6-methoxy-7-(4-(pyrrolidine-1-yl)-1-butyne-1-yl)quinazoline-4-amine] cannot be ordered by IC50: under 100 nM for the first, under 100 nM for the second.

First: COc1cc2c(NC3CC(C)(C)NC(C)(C)C3)nc(N3CCCCC3)nc2cc1C#CCCN(C)C [Example 27, 7-(4-(dimethylamino)-1-butyne-1-yl)-6-methoxy-2-(piperidine-1-yl)-N-(2,2,6,6,-tetramethylpiperidine-4-yl)quinazoline-4-amine]
Second: COc1cc2c(NC3CCCCC3)nc(N3CCCCC3)nc2cc1C#CCCN(C)C [Example 23, N-cyclohexyl-7-(4-(dimethylamino)-1-butyne-1-yl)-6-methoxy-2-(piperidine-1-yl)quinazoline-4-amine]
The IC50 of the first is lower: 100 to 1000 nM for the first, 10000 to 100000 nM for the second. The first is the more potent here.

`COc1cc2c(NC3CCN(C(C)C)CC3)nc(N3CCCC3)nc2cc1C#CCCN1CCCCC1` [Example 43, N-(1-isopropylpiperidine-4-yl)-6-methoxy-7-(4-(piperidine-1-yl)-1-butyne-1-yl)-2-(pyrrolidine-1-yl)quinazoline-4-amine] and `COc1cc2c(NC3CCN(C(C)C)CC3)nc(N3CCCCC3)nc2cc1C#CCCN1CCCCC1` [Example 12, N-(1-isopropylpiperidine-4-yl)-6-methoxy-2-(piperidine-1-yl)-7-(4-(piperidine-1-yl)-1-butyne-1-yl)quinazoline-4-amine] cannot be ordered by IC50: under 100 nM for the first, under 100 nM for the second.

First: COc1cc2c(NCCCN(C)C)nc(N3CCCCC3)nc2cc1C#CCCN(C)C [Example 21, N1-(7-(4-(dimethylamino)-1-butyne-1-yl)-6-methoxy-2-(piperidine-1-yl)quinazoline-4-yl)-N3,N3-dimethylpropane-1,3-diamine]
Second: COc1cc2c(NCCc3ccncc3)nc(N3CCCCC3)nc2cc1C#CCCN(C)C [Example 34]
The IC50 of the first is lower: 100 to 1000 nM for the first, 10000 to 100000 nM for the second. The first is the more potent here.

First: CNc1nc(N2CCCC2)nc2cc(C#CCCN3CCCC3)c(OC)cc12 [Example 81, 6-methoxy-N-methyl-2-(pyrrolidine-1-yl)-7-(4-(pyrrolidine-1-yl)-1-butyne-1-yl)quinazoline-4-amine]
Second: CCCN1CCC(Nc2nc(N3CCCC3)nc3cc(C#CCCN4CCCC4)c(OC)cc23)CC1 [Example 68, 6-methoxy-N-(1-propylpiperidine-4-yl)-2-(pyrrolidine-1-yl)-7-(4-(pyrrolidine-1-yl)-1-butyne-1-yl)quinazoline-4-amine]
The IC50 of the first is higher: 100 to 1000 nM for the first, under 100 nM for the second.

First: COc1cc2c(NC3CCN(C(C)C)CC3)nc(N3CCCCC3)nc2cc1C#CCCN1CC[C@H](F)C1 [Example 29, (S)-7-(4-(3-fluoropyrrolidine-1-yl)-1-butyne-1-yl)-N-(1-isopropylpiperidine-4-yl)-6-methoxy-2-(piperidine-1-yl)quinazoline-4-amine]
Second: COc1cc2c(NC3CCN(C(C)C)CC3)nc(N3CCN(C)CC3)nc2cc1C#CCCN1CCCCC1 [Example 39, N-(1-Disopropylpiperidine-4-yl)-6-methoxy-2-(4-methylpiperazine-1-yl)-7-(4-(piperidine-1-yl)-1-butyne-1-yl)quinazoline-4-amine]
The IC50 of the first is lower: 100 to 1000 nM for the first, 1000 to 10000 nM for the second.

`CCN1CCC(Nc2nc(N3CC[C@@H](F)C3)nc3cc(C#CCCN4CCCC4)c(OC)cc23)CC1` [Example 77, (R)-N-(1-ethylpiperidine-4-yl)-2-(3-fluoropyrrolidine-1-yl)-6-methoxy-7-(4-(pyrrolidine-1-yl)-1-butyne-1-yl)quinazoline-4-amine] and `COc1cc2c(NC3CCN(CCO)CC3)nc(N3CC[C@@H](F)C3)nc2cc1C#CCCN1CCCC1` [Example 89] cannot be ordered by IC50: under 100 nM for the first, under 100 nM for the second.

`COc1cc2c(NC3CCN(C(C)C)CC3)nc(N3CCC4(CCCC4)C3)nc2cc1C#CCCN(C)C` [Example 9] and `COc1cc2c(NC3CCN(C(C)C)CC3)nc(N3CCCN(C)CC3)nc2cc1C#CCCN(C)C` [Example 17, 7-(4-(dimethylamino)-1-butyne-1-yl)-N-(1-isopropylpiperidine-4-yl)-6-methoxy-2-(4-methyl-1,4-diazepane-1-yl)quinazoline-4-amine] cannot be ordered by IC50: under 100 nM for the first, under 100 nM for the second.

Compared with `COc1cc2c(NC3CCN(Cc4ccccc4)CC3)nc(N3CCCCC3)nc2cc1C#CCCN(C)C` [Example 18, N-(1-benzylpiperidine-4-yl)-7-(4-(dimethylamino)-1-butyne-1-yl)-6-methoxy-2-(piperidine-1-yl)quinazoline-4-amine], `COc1cc2c(NC3CCN(C4CC4)CC3)nc(N3CCCCC3)nc2cc1C#CCCN(C)C` [Example 24, N-(1-cyclopropylpiperidine-4-yl)-7-(4-(dimethylamino)-1-butyne-1-yl)-6-methoxy-2-(piperidine-1-yl)quinazoline-4-amine] is lower in IC50: 1000 to 10000 nM for the first, under 100 nM for the second.

First: COc1cc2c(NC3CCN(C(C)C)CC3)nc(N3C[C@@H]4C[C@@H]4[C@@H]3CO)nc2cc1C#CCCN1CCCCC1 [Example 47, ((1S,2R,5R)-3-(4-((1-isopropylpiperidine-4-yl)amino)-6-methoxy-7-(4-(piperidine-1-yl)-1-butyne-1-yl)quinazoline-2-yl)-3-azabicyclo[3.1.0]hexane-2-yl)methanol]
Second: COc1cc2c(NC3CCN(C(C)C)CC3)nc(N3CCN(C)CC3)nc2cc1C#CCCN1CCCC1 [Example 38, N-(1-isopropylpiperidine-4-yl)-6-methoxy-2-(4-methylpiperazine-1-yl)-7-(4-(pyrrolidine-1-yl)-1-butyne-1-yl)quinazoline-4-amine]
The IC50 of the first is lower: under 100 nM for the first, 100 to 1000 nM for the second.

Compared with `COc1cc2c(NC3CCN(C(C)C)CC3)nc(Nc3cnn(C)c3)nc2cc1C#CCCN1CCCC1` [Example 88, N4-(1-isopropylpiperidine-4-yl)-6-methoxy-N2-(1-methyl-1H-pyrazole-4-yl)-7-(4-(pyrrolidine-1-yl)-1-butyne-1-yl)quinazoline-2,4-diamine], `COc1cc2c(NC3CCN(C4CC4)CC3)nc(N3CCCC3)nc2cc1C#CCCN1CCCC1` [Example 54, N-(1-cyclopropylpiperidine-4-yl)-6-methoxy-2-(pyrrolidine-1-yl)-7-(4-(pyrrolidine-1-yl)-1-butyne-1-yl)quinazoline-4-amine] is lower in IC50: 100 to 1000 nM for the first, under 100 nM for the second.

`CCN1CCC(Nc2nc(N3CCCCC3)nc3cc(C#CCCN4CCCC4)c(OC)cc23)CC1` [Example 51, N-(1-ethylpiperidine-4-yl)-6-methoxy-2-(piperidine-1-yl)-7-(4-(pyrrolidine-1-yl)-1-butyne-1-yl)quinazoline-4-amine] and `CCCN1CCC(Nc2nc(N3CCCCC3)nc3cc(C#CCCN4CCCC4)c(OC)cc23)CC1` [Example 67, 6-methoxy-2-(piperidine-1-yl)-N-(1-propylpiperidine-4-yl)-7-(4-(pyrrolidine-1-yl)-1-butyne-1-yl)quinazoline-4-amine] cannot be ordered by IC50: under 100 nM for the first, under 100 nM for the second.

`COc1cc2c(NC3CCN(C(C)C)CC3)nc(N3CCCCC3)nc2cc1/C=C/CCN1CCCCC1` [Example 66, (E)-N-(1-isopropylpiperidine-4-yl)-6-methoxy-2-(piperidine-1-yl)-7-(4-(piperidine-1-yl)-1-butene-1-yl)quinazoline-4-amine] and `COc1cc2c(NC3CCN(C4CC4)CC3)nc(N3CCCCC3)nc2cc1C#CCCN1CCCC1` [Example 53, N-(1-cyclopropylpiperidine-4-yl)-6-methoxy-2-(piperidine-1-yl)-7-(4-(pyrrolidine-1-yl)-1-butyne-1-yl)quinazoline-4-amine] cannot be ordered by IC50: under 100 nM for the first, under 100 nM for the second.

`CCN1CCC(Nc2nc(N3CCCN(C)CC3)nc3cc(C#CCCN4CCCC4)c(OC)cc23)CC1` [Example 65, N-(1-ethylpiperidine-4-yl)-6-methoxy-2-(4-methyl-1,4-diazepane-1-yl)-7-(4-(pyrrolidine-1-yl)-1-butyne-1-yl) quinazoline-4-amine] gave an IC50 of under 100 nM.
